Results on seven substances are retold here after patent US8003773B2, “Polynucleotides encoding MHC class I-restricted hTERT epitopes, analogues thereof or polyepitopes” (Institut Pasteur, priority 2005, dated 2011).

The test system of experiment [1] is peptide loaded RMA-B7 target cells. Description: Peptide immunization of HLA-*B0702 transgenic mice for CTL induction, 51Cr release assay. The experiment is classed as in vivo. To be noted: for CTL response after peptide immunization: HLA-*B0702 transgenic mice; for R/T: responder (specific lysis ≧ 10%) versus tested mice / mice tested generating specific CTL: peptide immunization; for R/T: responder (specific lysis ≧ 10%) versus tested mice: six mice per peptide. As for the experimental part: Female HLA-*B0702 transgenic mice at 8-10 weeks of age were injected subcutaneously (s.c.) at the base of the tail with 50 μg of individual HLA-B0702 restricted hTERT peptides supplemented with 140 μg of helper peptide co-emulsified in incomplete Freund's adjuvant (Difco, Detroit, Mich.). Ten days later, spleen cells of individual mouse were re-activated in vitro with relevant peptide in six wells plate. Effector CTL cells were tested in a standard 4-5 h ^51Cr-release assay, using relevant or negative control peptide-pulsed, HLA-*B0702 transfected RMA cells (RMA-B7). Mice were considered as responders, when specific lysis ≧10% was observed.
(§1) Cytotoxicity assays were performed by using standard 4-5 h ^51Cr release assay as previously described (Firat et al. J Gene Med 2002; 4:38-45). Specific lysis in % was calculated by subtracting non-specific lysis observed with the control peptide. Mice were considered as responsers when specific lysis ≧10% was observed.

The test system of experiment [2] is hTERT peptide-pulsed target cells. The experiment is described as follows: Lv-hTERT immunization of HLA-B7 Tg mice, CTL response in chromium release assay. Conditions: Flap+ Lv-hTRT immunization, by restimulating peptide. Type of experiment: in vivo. As for the experimental part: (§2) Immunization with TRIPLv-hTERT was performed as a single subcutaneously (at the base of the tail) injection of 1500 ng of TripLv-hTERT suspension or control vector.
(§3) 12 days later, hTERT peptide-specific T among splenocytes were detected by an ELISPOT assay (see below). Cytotoxicity assays were performed on the same immune splenocyte populations after in vitro stimulation with peptide-pulsed as described above.
Mice were considered as responsers when specific lysis ≧10% was observed.

For experiment [3], the system named is human tumour cell lines of different origins. Description: Capacity of hTERT-specific CTLs from donors to lyse human tumour cell lines of different origins (summary). To be noted: CTL lines generated in vitro from healthy donors. Type of experiment: cell-based. How it is done:
as §1
(§4) Human CTL from donors were obtained after in vitro re-activated PBMC for 4 weeks with hTERT peptide HLA-B0702 restricted as described previously (Hernandez et al. Proc Natl Acad Sci U.S.A. 2002; 99:12275-80). Briefly, Ficoll-purified human PBMCS were thawed and incubated (4×10^6/well) in 24-well plates in RPMI 1640, 1 mM sodium pyruvate, 100 IU/ml penicillin, 100 μg/ml streptomycin, 10 mM HEPES, 5×10^-5 M 2-mercaptoethanol supplemented with heat inactivated 10% human serum (Institut Jacques Boy, Reims, France). They were stimulated with each hTERT peptide (10 μg/ml) and recombinant human IL-7 (20 ng/ml; R&D Systems) was added.
On day 7, lymphocytes were re-activated with peptide-pulsed γ-irradiated autologous PBMCs (50 Gy). The next day, 20 IU/ml human IL-2 (Roche, Mannheim, Germany) was added to the culture. CTL lines were re-activated weekly during four cycles. For some donors, CD8^+ T cells were purified after three round cycle, using CD8 microbeads (Miltenyi Biotec, Bergisch Gladbach, Germany.) according to manufacturer's recommendations and activated once before functional test. Cytolytic assays were performed 6 days after the last re-activation against various ^51Cr-labeled targets: T2-B7 pulsed with tested hTERT peptides or irrelevant peptide, or tumor cell lines.

The test system of experiment [4] is T2-B7 cells. The experiment is described as follows: Induction of primary CTL responses from healthy donors' PBMC by hTERT peptides. Type of experiment: cell-based, human. Conditions: HLA-B0702 healthy donors, in vitro immunization; FIG. 3.
Text: T-lymphocyte cells from HLA-*B0702^+ healthy donors were activated with each of the six hTERT peptide-pulsed autologous PBMC as detailed in materials and Method. After four rounds of weekly stimulation, effector cells, pulsed with relevant (▪) or control (□) peptides, were essayed for lytic activity against ^51Cr-labeled T2-B7 cells. Percentage of lysis at a 20/1 effector-target ratio is shown. Results from 8 out of 10 donors are presented (d1 to d8).
as §4
On day 7, lymphocytes were re-activated with peptide-pulsed γ-irradiated autologous PBMCs (50 Gy). The next day, 20 IU/ml human IL-2 (Roche, Mannheim, Germany) was added to the culture. CTL lines were re-activated weekly during four cycles. […]

The test system of experiment [5] is RMA-B7 targets loaded with relevant peptides. The experiment is described as follows: DNA immunization (hTERT) in HLA-*B0702 transgenic mice, peptide-specific CTL. Type of experiment: in vivo. To be noted: immunised with cDNA encoding hTERT; FIG. 2. How it is done: HLA-B7 Tg mice and one naïve mice (N) were immunized with 100 μg DNA encoding Htert. On day 14, spleen cells from each mouse were separately in vitro stimulated with different hTERT-derived peptides. Effector cells were essayed 6 days later against RMA-B7 targets loaded with relevant (▪) or control (□) peptides as described in the material and methods. Percentage of lysis at a 60/1 ratio are shown (results from two independent experiments).
The LvCMV-hTERT plasmid vector encoding the hTERT gene under the control of CMV promotor was purified on plasmid Giga kit columns under endotoxin-free conditions (Qiagen). Anesthetized HLA-*B0702 Transgenic mice were injected with said plasmid (50 μg each side) into regenerating tibialis anterior muscles. 14 days after, spleen cells of individual mouse were re-activated in vitro with peptide-pulsed (10 μg/ml), syngenic γ-irradiated (50 Gy) LPS-lymphoblast in complete medium, supplemented with 10% supernatant from Con A-activated rat spleens cells. Cytotoxicity assays were performed 6 days as described.
as §1

Experiment [6] deals with hTERT peptide-pulsed target cells. Description: Lv-hTERT immunization of HHD mice (HLA-A2.1), CTL response in chromium release assay. Type of experiment: in vivo. How it is done:
as §2, §3, §1

In the case of APRCRAVRSL [p4], in experiment [1], the “CTL response after peptide immunization” value was “strong CTL response in all mice tested” and the “R/T: responder (specific lysis ≧ 10%) versus tested mice” value is 6/6. Also, the R/T in experiment [2] is 6/8. The “tumor cell recognition by CTL lines specific for the peptide” value (“tumor cell recognition” for short) in experiment [3] is given as “do not lyse all the type of tested tumors”.
As for RPSFLLSSL [p342], the “donors with peptide-specific CTL responses” value in experiment [4] was 20 % of donors. Further, in experiment [1], the “CTL response after peptide immunization” value is given as “moderate specific CTL”, the “mice tested generating specific CTL” value was 50 % of mice tested and the “R/T: responder (specific lysis ≧ 10%) versus tested mice” value is recorded as 3/6. Further, the “mice with hTERT peptide-specific CTLs induced” value in experiment [5] is on record as “about 15 % of mice”. Also, in experiment [2], the R/T is recorded as 4/8. Besides, the “tumor cell recognition” value in experiment [3] was “recognize only melanoma cells (LB 34 and KU 268 target)”.
As for RPSLTGARRL [p351], the “R/T: responder (specific lysis ≧ 10%) versus tested mice” value in experiment [1] is listed as 4/6. The R/T in experiment [2] is on record as 5/8. In addition, in experiment [3], the “tumor cell recognition” value is “recognize the majority of tumor cell lines tested”.
On to RPAEEATSL [p277], for which, in experiment [1], the “CTL response after peptide immunization” value is on record as “moderate specific CTL”, the “mice tested generating specific CTL” value was 50 % of mice tested and the “R/T: responder (specific lysis ≧ 10%) versus tested mice” value is 3/6. For the same substance, the R/T in experiment [2] is recorded as 5/8. Moreover, the “tumor cell recognition” value in experiment [3] is “recognize renal cancer (293 UT) but neither melanoma nor lymphoid tumor cells”.
In the case of MPRAPRCRA [p1], the “R/T: responder (specific lysis ≧ 10%) versus tested mice” value in experiment [1] is recorded as 4/6. Further, the R/T in experiment [2] was 4/8. Also, in experiment [3], the “tumor cell recognition” value was “only recognize the T1-B7 targets”.
With “p540: HLA-A2.1-restricted hTERT-derived peptide, epitope previously classified as dominant (ILAKFLHWL; UniProt O14746 540-548, looked up, fragment)”, the “CTL responses specific for HLA-A2.1 restricted epitopes” value in experiment [6] (HHD mice immunized with Lv-hTERT) is “potent CTL responses”. The R/T in experiment [6] (HHD mice, Flap+ Lv-hTRT immunization, by restimulating peptide) is listed as 2/6.
Regarding APSFRQVSCL [p68], in experiment [1], the “CTL response after peptide immunization” value is listed as “strong CTL response in all mice tested” and the “R/T: responder (specific lysis ≧ 10%) versus tested mice” value is 6/6. For the same substance, the R/T in experiment [2] was 4/8. For the same substance, in experiment [3], the “tumor cell recognition” value is listed as “only recognize the T1-B7 targets”.
